In PubChem BioAssay AID256 (DTP/NCI, 2004):
Where “and” joins values, the source holds several entries; their conditions need not be identical. Identical values can stand only once. Inconclusive results and toxic doses are left out. The calls were made as follows: active = survival T/C of 150% or more; inactive = T/C below 125% in these data.

Tested on: CD2F1 mice, L1210 leukemia ip, survival T/C
Experiment: NCI In Vivo Anticancer Drug Screen. Data for tumor model L1210 Leukemia (intraperitoneal) in CD2F1 (CDF1) mice
Conditions: higher = longer survival
How it was run: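 Implant tumor; dose compound or vehicle; measure endpoint in both groups; report treated divided by control.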

[1] = endpoint: mean survival time, dose: 100.0 mg/kg/injection, schedule: Q04DX003 (ip), vehicle: saline with Tween-80
[2] = endpoint: mean survival time, dose: 200.0 mg/kg/injection, schedule: Q04DX003 (ip), vehicle: saline with Tween-80
[3] = endpoint: mean survival time, dose: 400.0 mg/kg/injection, schedule: Q04DX003 (ip), vehicle: saline with Tween-80
[4] = endpoint: mean survival time, dose: 25.0 mg/kg/injection, schedule: Q01DX009 (ip), vehicle: saline with Tween-80
[5] = endpoint: mean survival time, dose: 50.0 mg/kg/injection, schedule: Q01DX009 (ip), vehicle: saline with Tween-80
[6] = endpoint: mean survival time, dose: 50.0 mg/kg/injection, schedule: Q01DX009 (ip), vehicle: saline
[7] = endpoint: mean survival time, dose: 100.0 mg/kg/injection, schedule: Q01DX009 (ip), vehicle: saline
[8] = endpoint: mean survival time, dose: 100.0 mg/kg/injection, schedule: Q01DX009 (ip), vehicle: saline with Tween-80
[9] = endpoint: mean survival time, dose: 200.0 mg/kg/injection, schedule: Q01DX009 (ip), vehicle: saline with Tween-80
[10] = endpoint: mean survival time, dose: 100.0 mg/kg/injection, schedule: Q04DX002 (ip), vehicle: Klucel (hydroxypropylcellulose) (HPC)
[11] = endpoint: mean survival time, dose: 200.0 mg/kg/injection, schedule: Q04DX002 (ip), vehicle: Klucel (hydroxypropylcellulose) (HPC)
[12] = endpoint: mean survival time, dose: 400.0 mg/kg/injection, schedule: Q04DX002 (ip), vehicle: Klucel (hydroxypropylcellulose) (HPC)
[13] = endpoint: mean survival time, dose: 100.0 mg/kg/injection, schedule: Q04DX002 (ip), vehicle: saline with Tween-80
[14] = endpoint: mean survival time, dose: 200.0 mg/kg/injection, schedule: Q04DX002 (ip), vehicle: saline with Tween-80
[15] = endpoint: mean survival time, dose: 100.0 mg/kg/injection, schedule: Q01DX001 (ip), vehicle: saline with Tween-80
[16] = endpoint: mean survival time, dose: 200.0 mg/kg/injection, schedule: Q01DX001 (ip), vehicle: saline with Tween-80
[17] = endpoint: mean survival time, dose: 400.0 mg/kg/injection, schedule: Q01DX001 (ip), vehicle: saline with Tween-80
[18] = endpoint: mean survival time, dose: 400.0 mg/kg/injection, schedule: Q04DX002 (ip), vehicle: saline with Tween-80

Measured: T/C

CC(C)(C)C(=O)CC(=O)C(C)(C)C.CC(C)(C)C(=O)CC(=O)C(C)(C)C.CC(C)(C)C(=O)CC(=O)C(C)(C)C.[La]
inactive: [1] 94 % of control | [2] 101 % of control | [3] 97 % of control

O=C1OCC/C1=C1/CCOC1
inactive: [4] 101 % of control | [5] 101 % of control

Cc1ccccc1N=C(NO)c1ccccc1
inactive: [6] 98 % of control | [7] 98 % of control | endpoint: mean survival time, dose: 200.0 mg/kg/injection, schedule: Q01DX009 (ip), vehicle: saline 95 % of control

Cc1ccc([N+](=O)[O-])cc1NC(=O)Nc1ccon1
inactive: endpoint: mean survival time, dose: 50.0 mg/kg/injection, schedule: Q01DX009 (ip), vehicle: Klucel (hydroxypropylcellulose) (HPC) 108 % of control | endpoint: mean survival time, dose: 100.0 mg/kg/injection, schedule: Q01DX009 (ip), vehicle: Klucel (hydroxypropylcellulose) (HPC) 96 % of control | endpoint: mean survival time, dose: 200.0 mg/kg/injection, schedule: Q01DX009 (ip), vehicle: Klucel (hydroxypropylcellulose) (HPC) 98 % of control

NC/C(=N\Nc1ccc([N+](=O)[O-])cc1[N+](=O)[O-])c1ccccc1
inactive: endpoint: mean survival time, dose: 100.0 mg/kg/injection, schedule: Q04DX003 (ip), vehicle: saline 103 % of control | endpoint: mean survival time, dose: 200.0 mg/kg/injection, schedule: Q04DX003 (ip), vehicle: saline 100 % of control | endpoint: mean survival time, dose: 400.0 mg/kg/injection, schedule: Q04DX003 (ip), vehicle: saline 97 % of control

OCCNCc1ccc(Cl)cc1
inactive: [5] 96 % of control | [8] 98 % of control | [1] 103 % of control | [9] 93 % of control | [2] 96 % of control

COc1ccc(C(O)c2ncccc2C)cc1OC (stereo not given)
inactive: endpoint: mean survival time, dose: 12.5 mg/kg/injection, schedule: Q01DX009 (ip), vehicle: water 100 % of control | endpoint: mean survival time, dose: 25.0 mg/kg/injection, schedule: Q01DX009 (ip), vehicle: water 98 % of control | endpoint: mean survival time, dose: 50.0 mg/kg/injection, schedule: Q01DX009 (ip), vehicle: water 104 % of control | endpoint: mean survival time, dose: 100.0 mg/kg/injection, schedule: Q01DX009 (ip), vehicle: water 100 % of control | endpoint: mean survival time, dose: 200.0 mg/kg/injection, schedule: Q01DX009 (ip), vehicle: water 95 % of control

Cc1ccc(-c2oc3ccccc3c(=O)c2O)cc1
inactive: endpoint: mean survival time, dose: 50.0 mg/kg/injection, schedule: Q01DX001 (ip), vehicle: saline 98 % of control | endpoint: mean survival time, dose: 100.0 mg/kg/injection, schedule: Q01DX001 (ip), vehicle: saline 92 % of control | endpoint: mean survival time, dose: 200.0 mg/kg/injection, schedule: Q01DX001 (ip), vehicle: saline 98 % of control | endpoint: mean survival time, dose: 400.0 mg/kg/injection, schedule: Q01DX001 (ip), vehicle: saline 98 % of control

CN(C)c1ccc2c(SCC(=O)OCC(=O)[C@@]3(O)CC[C@H]4[C@@H]5CCC6=CC(=O)C=C[C@]6(C)[C@H]5C(=O)C[C@@]43C)c3ccc(N(C)C)cc3nc2c1
inactive: endpoint: median survival time, dose: 25.0 mg/kg/injection, schedule: Q01DX009 (ip), vehicle: Klucel (hydroxypropylcellulose) (HPC) 117 % of control and 105 % of control | endpoint: median survival time, dose: 50.0 mg/kg/injection, schedule: Q01DX009 (ip), vehicle: Klucel (hydroxypropylcellulose) (HPC) 114 % of control and 116 % of control and 108 % of control | endpoint: median survival time, dose: 100.0 mg/kg/injection, schedule: Q01DX009 (ip), vehicle: Klucel (hydroxypropylcellulose) (HPC) 116 % of control and 118 % of control and 123 % of control | endpoint: median survival time, dose: 200.0 mg/kg/injection, schedule: Q01DX009 (ip), vehicle: Klucel (hydroxypropylcellulose) (HPC) 108 % of control | endpoint: median survival time, dose: 400.0 mg/kg/injection, schedule: Q01DX009 (ip), vehicle: Klucel (hydroxypropylcellulose) (HPC) 123 % of control

S=C(Oc1ccc(Cl)cc1)Sc1ccc(Cl)cc1
inactive: [10] 101 % of control | [11] 89 % of control | [12] 97 % of control

c1ccc(-c2nc(/N=N/c3nc(-c4ccccc4)c(-c4ccccc4)[nH]3)[nH]c2-c2ccccc2)cc1
inactive: [10] 96 % of control | [11] 96 % of control | [12] 100 % of control

c1ccc(-c2oc(-c3ccccc3)c3c(-c4ccccc4)cccc23)cc1
inactive: endpoint: mean survival time, dose: 50.0 mg/kg/injection, schedule: Q04DX002 (ip), vehicle: saline with Tween-80 90 % of control | [13] 87 % of control | [14] 87 % of control

COc1ccc(Br)cc1C1OC(=O)c2c(OC)c(OC)cc(N)c21 (stereo not given)
inactive: [1] 98 % of control | [2] 92 % of control | [3] 88 % of control

CC[NH-].[Cl][Pt+2][Cl].[NH2-]
inactive: endpoint: mean survival time, dose: 1.56 mg/kg/injection, schedule: Q04DX003 (ip), vehicle: water 118 % of control | endpoint: mean survival time, dose: 3.13 mg/kg/injection, schedule: Q04DX003 (ip), vehicle: distilled water + Tween-80 119 % of control | endpoint: mean survival time, dose: 6.25 mg/kg/injection, schedule: Q04DX003 (ip), vehicle: water 124 % of control | endpoint: mean survival time, dose: 25.0 mg/kg/injection, schedule: Q04DX003 (ip), vehicle: distilled water + Tween-80 98 % of control

CC#CC(C)=O
inactive: endpoint: mean survival time, dose: 25.0 mg/kg/injection, schedule: Q01DX009 (ip), vehicle: saline 93 % of control | [6] 96 % of control | [7] 97 % of control

COc1ccccc1N=Nc1c(O)n(-c2ccccc2OC)c(=S)n(-c2ccc(I)cc2)c1=O
inactive: [15] 96 % of control | [16] 93 % of control | [17] 95 % of control

Clc1ccc(OCCOc2ccc(Cl)cc2Cl)c(Cl)c1
inactive: [1] 95 % of control | [2] 106 % of control | [3] 100 % of control

COP12(OCCO1)SC(C(F)(F)F)=C(C(F)(F)F)S2
inactive: endpoint: mean survival time, dose: 12.5 mg/kg/injection, schedule: Q01DX009 (ip), vehicle: saline with Tween-80 102 % of control and 109 % of control | [4] 96 % of control and 101 % of control | [5] 100 % of control

CC(=O)[C@@]12O[C@@H]1C[C@H]1[C@@H]3CCC4=CC(=O)CC[C@]4(C)[C@H]3CC[C@@]12C
inactive: [13] 96 % of control | [14] 101 % of control | [18] 96 % of control

CC(F)(F)Cc1ccccc1
inactive: [15] 110 % of control | [1] 98 % of control | [16] 102 % of control | [2] 95 % of control | [17] 102 % of control | [3] 98 % of control

CC/C=C/CC(=O)NCc1ccc(O)c(OC)c1
inactive: [15] 101 % of control | [16] 103 % of control

c1cc[c]([Pb]([c]2ccccc2)([c]2ccccc2)[n]2cccc2)cc1
inactive: endpoint: mean survival time, dose: 6.25 mg/kg/injection, schedule: Q01DX009 (ip), vehicle: acetone 96 % of control | endpoint: mean survival time, dose: 12.5 mg/kg/injection, schedule: Q01DX009 (ip), vehicle: acetone 88 % of control | endpoint: mean survival time, dose: 12.5 mg/kg/injection, schedule: Q04DX003 (ip), vehicle: acetone 88 % of control | endpoint: mean survival time, dose: 25.0 mg/kg/injection, schedule: Q04DX003 (ip), vehicle: acetone 93 % of control

CC1=CCC(=O)O1
inactive: [13] 102 % of control | [14] 98 % of control | [18] 102 % of control

C1=CSC(=C2SC=CS2)S1
inactive: [1] 95 % of control | [2] 102 % of control

CN(C)c1ccc(N=Nc2cccc(Cl)c2Cl)cc1
inactive: [4] 102 % of control | [5] 97 % of control | [8] 105 % of control | [1] 95 % of control | [2] 98 % of control | [3] 104 % of control

CC(C)(C)/[N+]([O-])=N/O
inactive: endpoint: mean survival time, dose: 75.0 mg/kg/injection, schedule: Q01DX001 (ip), vehicle: saline 101 % of control

O=C(C[n+]1ccccc1)CC(O)(C(F)(F)F)C(F)(F)F
inactive: [8] 105 % of control | [9] 103 % of control
